Source: publication PMC4639722, “Dihydrotanshinone-I interferes with the RNA-binding activity of HuR affecting its post-transcriptional function” (Scientific Reports, 2015)

Columns and labels:
HuD = biological target: T1, HuD (Homo sapiens, UniProt P26378); experiment: REMSA of purified HuD with Cy3 AU-rich RNA probe; format: biochemical
T1 construct: gene ELAVL4; HuD-His, expressed in HEK293T cells and purified

HuR = biological target: T2, HuR (Homo sapiens, UniProt Q15717); experiment: REMSA of recombinant HuR with Cy3 AU-rich RNA probe at equilibrium; format: biochemical
T2 construct: gene ELAVL1; recombinant HuR (HuR-cMyc-His)

HuR M2_M3 = HuR M2_M3 (human, UniProt Q15717 117-326); experiment: equilibrium binding, assay not stated (REMSA or AlphaScreen); no DHTS; limited effect of DHTS; REMSA/AlphaScreen buffers as in ref 23 (not given); pull-down lysates: 20 mM HEPES pH 7.5, 50 mM KCl, 0.5 ug BSA, 0.25% glycerol, 4 C; settings: protein: recombinant; tags: His; label: 5'-Cy3; single strand
HuR M1_M2 = HuR M1_M2 (human, UniProt Q15717 1-197); experiment: equilibrium binding, assay not stated (REMSA or AlphaScreen); no DHTS; DHTS inhibits, Ki 4.12 nM; REMSA/AlphaScreen buffers as in ref 23 (not given); pull-down lysates: 20 mM HEPES pH 7.5, 50 mM KCl, 0.5 ug BSA, 0.25% glycerol, 4 C; settings: protein: recombinant; tags: His; label: 5'-Cy3; single strand
Chain of HuR M1_M2 (Q15717 1-197): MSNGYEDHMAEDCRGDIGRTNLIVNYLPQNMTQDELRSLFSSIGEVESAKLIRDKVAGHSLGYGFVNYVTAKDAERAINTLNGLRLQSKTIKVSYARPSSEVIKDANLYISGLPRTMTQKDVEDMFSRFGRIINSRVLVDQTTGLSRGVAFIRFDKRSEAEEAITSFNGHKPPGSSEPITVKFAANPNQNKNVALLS

T2 sequence (Q15717 2-326): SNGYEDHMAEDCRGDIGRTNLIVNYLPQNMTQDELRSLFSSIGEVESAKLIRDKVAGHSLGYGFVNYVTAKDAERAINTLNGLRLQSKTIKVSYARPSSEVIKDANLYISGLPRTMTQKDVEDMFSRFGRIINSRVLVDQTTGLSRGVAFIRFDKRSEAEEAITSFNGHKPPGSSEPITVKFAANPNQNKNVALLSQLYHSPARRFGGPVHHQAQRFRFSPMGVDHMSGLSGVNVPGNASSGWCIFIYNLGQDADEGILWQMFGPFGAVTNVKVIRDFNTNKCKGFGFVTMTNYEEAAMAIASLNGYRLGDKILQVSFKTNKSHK
T1 sequence (P26378 whole entry): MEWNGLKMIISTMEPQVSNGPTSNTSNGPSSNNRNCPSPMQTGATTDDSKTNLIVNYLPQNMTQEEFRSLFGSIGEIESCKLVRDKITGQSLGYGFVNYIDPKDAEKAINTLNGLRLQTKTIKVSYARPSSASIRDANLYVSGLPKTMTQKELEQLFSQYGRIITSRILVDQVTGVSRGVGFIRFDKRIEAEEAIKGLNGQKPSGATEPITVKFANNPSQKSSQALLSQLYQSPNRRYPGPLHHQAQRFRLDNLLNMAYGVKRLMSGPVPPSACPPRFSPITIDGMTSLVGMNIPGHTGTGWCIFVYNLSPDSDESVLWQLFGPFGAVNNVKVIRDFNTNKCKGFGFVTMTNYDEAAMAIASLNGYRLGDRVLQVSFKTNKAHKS
Chain of HuR M2_M3 (Q15717 117-326): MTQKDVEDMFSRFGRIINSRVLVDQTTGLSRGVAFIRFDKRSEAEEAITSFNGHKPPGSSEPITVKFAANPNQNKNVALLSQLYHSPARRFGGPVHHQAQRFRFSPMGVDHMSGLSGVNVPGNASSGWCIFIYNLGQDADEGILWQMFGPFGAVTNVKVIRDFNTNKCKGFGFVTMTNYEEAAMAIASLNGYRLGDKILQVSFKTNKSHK

| Molecule | REMSA of recombinant HuR with Cy3 AU-rich RNA probe at equilibrium (HuR) | further results |
| --- | --- | --- |
| Cc1cccc2c3c(ccc12)C1=C(C(=O)C3=O)[C@@H](C)CO1 [15,16-dihydrotanshinone-I] | – | REMSA of purified HuD with Cy3 AU-rich RNA probe (HuD): only HuD-RNA complex formation was affected by DHTS at the reference doses |
| C[C@H]1COC2=C1C(=O)C(=O)c1c2ccc2c1CCCC2(C)C [Cryptotanshinone] | while cryptotanshinone and tanshinone IIA were less potent (micromolar range) | – |
| Cc1coc2c1C(=O)C(=O)c1c-2ccc2c1CCCC2(C)C [TanII, Tanshinone IIA] | while cryptotanshinone and tanshinone IIA were less potent (micromolar range) | – |
| Cc1coc2c1C(=O)C(=O)c1c-2ccc2c(C)cccc12 [TanI, Tanshinone I] | the potency of tanshinone I was comparable to DHTS at equilibrium (Fig. 2B) | – |
| AUUAUUUAUUAUUUAUUUAUUAUUUA (ssRNA) [Cy3 TNF ARE RNA probe] | – | Kd (HuR M2_M3): ~24 nM; Kd (HuR M1_M2): 2.66 nM |
